This test concerns IL-17. Nature of the test: IL-17 generation in mouse spleen cells under Th17 differentiation, sandwich ELISA. As to conditions: mouse spleen cells under Th17 stimulating condition, 3 days. The test is classed as cell-based. As for the experimental part:
In order to verify whether the biguanide derivative compound of the present invention has the activity of […] generation of IL-17 as an inflammatory cytokine in a Th17 cell which is a pathogenic cell, an expression degree of IL-17 was measured by an ELISA assay.
Spleen cells were obtained from a normal mouse of C57BL/6 (Orient Company, Korea). That is, the tissue of the spleen extracted from the mouse was finely grinded by using a teasing slide and then erythrocytes in the spleen were removed by an erythrocyte hemolysis solution. Thereafter, a PBS buffer solution was added, centrifuged, and washed to obtain spleen cells.
1×10^6 of the spleen cells from the mouse prepared through Example <2-1> were divided in a 24-well plate coated with […] of anti-CD3 antibody and simultaneously treated with 1 μg/mL of anti-CD28 antibody, 2 ng/ml of TGF-β, 20 ng/ml of IL-6 20 ng/ml, 2 μg/ml of anti-IL-4, and 2 μg/ml of anti-IFNr as a condition capable of stimulating Th17 cells, and then the cells were incubated for 3 days to induce the differentiation of the Th17 cells. […]
In order to measure an amount of the generated IL-17 cytokine, a supernatant of the incubated cells was collected and the IL-17 expression degree was examined by using a sandwich ELISA. […] Thereafter, a PNPP/DEA solution was added and colored, and then the absorbance was measured at a wavelength of 405 nm.

This note sets out measurements from patent US10716771B2, “Pharmaceutical composition for preventing or treating immune diseases or inflammatory diseases, containing biguanide derivative compound as active ingredient” (THE CATHOLIC UNIVERSITY OF KOREA INDUSTRY-ACADEMIC …, priority 2013, dated 2020).

SMILES strings stand for the structures.

In the case of `CC(C)NC(=N)NC(=N)N` [SD-000196, 1-isopropylbiguanide], the “IL-17 generated amount, dependence on treatment concentration” value (2 μM, 20 μM and 200 μM) is “reduced depending on the treatment concentration”. In addition, the “generated amount of IL-17” value (200 μM, sandwich ELISA) is “completely suppressed”.
